This is an account of results in patent publication US20170275269A1, “BENZYL SUBSTITUTED INDAZOLES AS BUB1 KINASE INHIBITORS” (Bayer Pharma Aktiengesellschaft, priority 2014, published 2017).

Where two headings read alike, the source gives them in different places.

Assay [1] addresses T1, catalytic domain of human Bub1 (amino acids 704-1085) (Homo sapiens, UniProt O43683).
T1 construct: catalytic domain of human Bub1 (amino acids 704-1085); His6 (N); made in house; host or cells: Hi5 insect cells
Description: Bub1 kinase assay (TR-FRET). Type of assay: biochemical. On the procedure:
To this end, 100-fold concentrated compound solutions (in DMSO) were previously prepared by serial dilution (1:3.4) of 2 mM stocks in a clear low volume 384-well source microtiter plate (Greiner Bio-One, Frickenhausen, Germany), from which 50 nL of compounds were transferred into a black low volume test microtiter plate from the same supplier. […] The resulting mixture (5 μL final volume) was incubated at 22° C. during 60 min., and the reaction was stopped by the addition of 5 μL of an aqueous EDTA-solution (50 mM EDTA, in 100 mM HEPES pH 7.5 and 0.2% (w/v) bovine serum albumin) which also contained the TR-FRET detection reagents (0.2 μM streptavidin-XL665 [Cisbio Bioassays, Codolet, France] and 1 nM anti-phosho-Serine antibody [Merck Millipore, cat. #35-001] and 0.4 nM LANCE EU-W1024 labeled anti-mouse IgG antibody [Perkin-Elmer, product no. AD0077, alternatively a Terbium-cryptate-labeled anti-mouse IgG antibody from Cisbio Bioassays can be used]). The stopped reaction mixture was further incubated 1 h at 22° C. in order to allow the formation of complexes between peptides and detection reagents. Subsequently, the amount of product was evaluated by measurement of the resonance energy transfer from the Eu-chelate-antibody complex recognizing the Phosphoserine residue to the streptavidin-XL665 bound to the biotin moiety of the peptide. […] IC50 values were calculated by fitting the normalized inhibition data to a 4-parameter logistic equation (Minimum, Maximum, IC50, Hill; Y=Max+(Min−Max)/(1+(X/IC50)Hill)).

In assay [2] the test system is HeLa human cervical cancer cell line. Description: Proliferation assay (HeLa cell line).
Description: Cultivated tumor cells (cells were ordered from ATCC) were plated at a density of 3000 cells/well in a 96-well multititer plate in 200 μL of growth medium supplemented 10% fetal calf serum. After 24 hours, the cells of one plate (zero-point plate) were stained with crystal violet (see below), while the medium of the other plates was replaced by fresh culture medium (200 μL), to which the test substances were added in various concentrations (0 μM, as well as in the range of 0.001-10 μM; the final concentration of the solvent dimethyl sulfoxide was 0.5%). The cells were incubated for 4 days in the presence of test substances. Cell proliferation was determined by staining the cells with crystal violet: the cells were fixed by adding 20 μL/measuring point of an 11% glutaric aldehyde solution for 15 minutes at room temperature. After three washing cycles of the fixed cells with water, the plates were dried at room temperature. The cells were stained by adding 100 μL/measuring point of a 0.1% crystal violet solution (pH 3.0). After three washing cycles of the stained cells with water, the plates were dried at room temperature. The dye was dissolved by adding 100 μL/measuring point of a 10% acetic acid solution. Absorption was determined by photometry at a wavelength of 595 nm. The change of cell number, in percent, was calculated by normalization of the measured values to the absorption values of the zero-point plate (=0%) and the absorption of the untreated (0 μm) cells (=100%). The IC50 values were determined by means of a 4 parameter fit.
Assay [3] concerns HeLa human cervical tumor cells. The experiment in a line: Proliferation Assay (HeLa+Paclitaxel). Conditions: read-out: Biological Assay 3.0: Proliferation Assay (HeLa + Paclitaxel):, 3 nM paclitaxel, 92 hours with test substance.
Description: Proliferation Assay (HeLa+Paclitaxel):
Cultivated HeLa human cervical tumor cells (DSMZ ACC-57) were plated at a density of 3000 cells/well in a 96-well multititer plate in 200 μL of growth medium supplemented 10% fetal calf serum. After 24 hours, the cells of one plate (zero-point plate) were stained with crystal violet (see below). The medium of the other plates was supplemented with 3 nM of paclitaxel (Sigma-Aldrich) and the cells were incubated at 37° C. After 4 hours the test substances were added in various concentrations (0 μM, as well as in the range of 0.001-10 μM; the final concentration of the solvent dimethyl sulfoxide was adjusted to 0.1%) using a Hewlett-Packard HP D300 Digital Dispenser. The cells were incubated for another 92 hours at 37° C. in the presence of test substances. Cell proliferation was determined by staining the cells with crystal violet: the cells were fixed by adding 20 μL/measuring point of an 11% glutaric aldehyde solution for 15 minutes at room temperature. After three washing cycles of the fixed cells with water, the plates were dried at room temperature. The cells were stained by adding 100 μL/measuring point of a 0.1% crystal violet solution (pH 3.0). After three washing cycles of the stained cells with water, the plates were dried at room temperature. The dye was dissolved by adding 100 μL/measuring point of a 10% acetic acid solution. Absorption was determined by photometry at a wavelength of 595 nm. The change of cell number, in percent, was calculated by normalization of the measured values to the absorption values of the zero-point plate (=0%) and the absorption of the untreated (0 μm) cells (=100%). The IC50 values were determined by means of a 4 parameter fit.
Where [4] appears, read: 10 μM ATP, 1 μM peptide substrate, read-out: Biological Assay 1: Bub1 kinase assay median IC50.
Where [5] appears, read: Homo sapiens, 96 h, read-out: Biological Assay 2: Proliferation assay (HeLa cell line) median IC50.
Setting [6] is: Homo sapiens, 96 h, read-out: Biological Assay 2: Proliferation assay (HeLa cell line) median IC50, HeLa, 4 days incubation, crystal violet.

T1 sequence (O43683 704-1085): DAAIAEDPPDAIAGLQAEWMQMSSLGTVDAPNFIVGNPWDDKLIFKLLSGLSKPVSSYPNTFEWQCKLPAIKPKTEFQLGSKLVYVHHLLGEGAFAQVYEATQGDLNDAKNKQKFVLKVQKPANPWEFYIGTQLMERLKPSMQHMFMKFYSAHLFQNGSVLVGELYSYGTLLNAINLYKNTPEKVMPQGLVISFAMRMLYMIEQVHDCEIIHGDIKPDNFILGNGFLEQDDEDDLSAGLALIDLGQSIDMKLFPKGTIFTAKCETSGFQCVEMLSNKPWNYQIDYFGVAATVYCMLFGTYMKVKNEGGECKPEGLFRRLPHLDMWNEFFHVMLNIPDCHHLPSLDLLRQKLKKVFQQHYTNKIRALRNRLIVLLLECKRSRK

In the case of `CN1CCN(CCCOc2cnc(-c3nn(Cc4c(F)cc(OCC5CC5)cc4F)c4ccccc34)nc2Nc2ccncc2Cl)CC1` [Example 2-1-1, N-(3-chloropyridin-4-yl)-2-{1-[4-(cyclopropylmethoxy)-2,6-difluorobenzyl]-1H-indazol-3-yl}-5-[3-(4-methylpiperazin-1-yl)propoxy]pyrimidin-4-amine], the IC50 in assay [1] (setting [4]) was 0.01 µM; in assay [2] (setting [5]) it was 1.1 µM; in assay [3], 0.069 µM.

For the compound `Fc1cc(OCC2CC2)cc(F)c1Cn1nc(-c2ncc(OCCCN3CCOCC3)c(Nc3ccncc3Cl)n2)c2ccccc21` [Example 2-1-2, N-(3-chloropyridin-4-yl)-2-{1-[4-(cyclopropylmethoxy)-2,6-difluorobenzyl]-1H-indazol-3-yl}-5-[3-(morpholin-4-yl)propoxy]pyrimidin-4-amine], the IC50 was 0.05 µM in assay [1] (setting [4]), 5.8 µM in assay [2] (setting [5]) and 0.76 µM in assay [3].

As to `CCOc1cc(F)c(Cn2nc(-c3ncc(OCCCN4CCOCC4)c(Nc4ccnc(NC(C)=O)c4)n3)c3ccccc32)c(F)c1` [Example 2-1-3, N-[4-({2-[1-(4-ethoxy-2,6-difluorobenzyl)-1H-indazol-3-yl]-5-[3-(morpholin-4-yl)-propoxy]pyrimidin-4-yl}amino)pyridin-2-yl]acetamide], the IC50 in assay [1] (setting [4]) amounted to 0.0068 µM; in assay [2] (setting [5]), 3.4 µM; in assay [3], 0.078 µM.

On to `CCOc1cc(F)c(Cn2nc(-c3ncc(OCCCN4CCN(C)CC4)c(Nc4ccnc(NC(C)=O)c4)n3)c3ccccc32)c(F)c1` [Example 2-1-4, N-[4-({2-[1-(4-ethoxy-2,6-difluorobenzyl)-1H-indazol-3-yl]-5-[3-(4-methylpiperazin-1-yl)propoxy]pyrimidin-4-yl}amino)pyridin-2-yl]acetamide], for which the values for the IC50 in assay [1] (setting [4]), in assay [2] (setting [5]) and in assay [3] were 0.0046 µM, 2 µM and 0.16 µM, respectively.

In the case of `CCOc1cc(F)c(Cn2nc(-c3ncc(OCCCN4CCN(CC(F)(F)F)CC4)c(Nc4ccnc(NC(C)=O)c4)n3)c3ccccc32)c(F)c1` [Example 2-1-5, N-{4-[(2-[1-(4-ethoxy-2,6-difluorobenzyl)-1H-indazol-3-yl]-5-{3-[4-(2,2,2-tri-fluoroethyl)piperazin-1-yl]propoxy}pyrimidin-4-yl)amino]pyridin-2-yl}acetamide], the IC50 in assay [1] was 0.023 µM; in assay [2] (setting [6]), above 10 µM; in assay [3], 0.44 µM.

Take `CCOc1cc(F)c(Cn2nc(-c3ncc(OCCCN4CCN(C)CC4)c(Nc4ccncn4)n3)c3ccccc32)c(F)c1` [Example 2-1-6, 2-[1-(4-ethoxy-2,6-difluorobenzyl)-1H-indazol-3-yl]-5-[3-(4-methylpiperazin-1-yl)propoxy]-N-(pyrimidin-4-yl)pyrimidin-4-amine]: the IC50 in assay [1] (setting [4]) was 0.0096 µM; in assay [2] (setting [5]), 1.1 µM; in assay [3], 0.86 µM.

Take `CCOc1cc(F)c(Cn2nc(-c3ncc(OCCCN4CCN(C)CC4)c(Nc4ccnc(C)n4)n3)c3ccccc32)c(F)c1` [Example 2-1-7, 2-[1-(4-ethoxy-2,6-difluorobenzyl)-1H-indazol-3-yl]-5-[3-(4-methylpiperazin-1-yl)propoxy]-N-(2-methylpyrimidin-4-yl)pyrimidin-4-amine]: the values for the IC50 in assay [1] (setting [4]), in assay [2] (setting [5]) and in assay [3] were 0.012 µM, 3.7 µM and 0.43 µM, respectively.

With `CCOc1cc(F)c(Cn2nc(-c3ncc(OCCCN4CCN(C)CC4)c(Nc4ccnc(C)c4)n3)c3ccccc32)c(F)c1` [Example 2-1-8, 2-[1-(4-ethoxy-2,6-difluorobenzyl)-1H-indazol-3-yl]-5-[3-(4-methylpiperazin-1-yl)propoxy]-N-(2-methylpyridin-4-yl)pyrimidin-4-amine], the IC50 was found to be 0.028 µM in assay [1] (setting [4]), 1.2 µM in assay [2] (setting [5]) and 0.37 µM in assay [3].

Consider `Fc1cc(OCC(F)F)cc(F)c1Cn1nc(-c2ncc(OCCCN3CCOCC3)c(Nc3ccncn3)n2)c2ccccc21` [Example 2-1-9, 2-{1-[4-(2,2-difluoroethoxy)-2,6-difluorobenzyl]-1H-indazol-3-yl}-5-[3-(morpholin-4-yl)propoxy]-N-(pyrimidin-4-yl)pyrimidin-4-amine], for which the IC50 in assay [1] (setting [4]) came to 0.019 µM; in assay [2] (setting [5]), 3.7 µM; in assay [3], 0.49 µM.

Turning to `CCOc1cc(F)c(Cn2nc(-c3ncc(OCCCN4CCN(C)CC4)c(Nc4cc(C)ncc4C)n3)c3ccccc32)c(F)c1` [Example 2-1-10, N-(2,5-dimethylpyridin-4-yl)-2-[1-(4-ethoxy-2,6-difluorobenzyl)-1H-indazol-3-yl]-5-[3-(4-methylpiperazin-1-yl)propoxy]pyrimidin-4-amine], the IC50 in assay [1] (setting [4]) stood at 0.25 µM; in assay [2] (setting [5]) it was 0.55 µM; in assay [3] it was 0.16 µM.

`Cc1cc(Nc2nc(-c3nn(Cc4c(F)cc(OCC5CC5)cc4F)c4ccccc34)ncc2OCCCN2CCOCC2)ccn1` [Example 2-1-11, 2-{1-[4-(cyclopropylmethoxy)-2,6-difluorobenzyl]-1H-indazol-3-yl}-N-(2-methylpyridin-4-yl)-5-[3-(morpholin-4-yl)propoxy]pyrimidin-4-amine]: in assay [1] (setting [4]), the IC50 was 0.37 µM.

Consider `CCOc1cc(F)c(Cn2nc(-c3ncc(OCCCCN4CC(F)(F)C4)c(Nc4ccncc4Cl)n3)c3ccccc32)c(F)c1` [Example 2-2-1, N-(3-chloropyridin-4-yl)-5-[4-(3,3-difluoroazetidin-1-yl)butoxy]-2-[1-(4-ethoxy-2,6-difluorobenzyl)-1H-indazol-3-yl]pyrimidin-4-amine], for which the results for the IC50 in assay [1], in assay [2] (setting [6]) and in assay [3] were 0.019 µM, 9 µM and 0.14 µM, respectively.

Take `CCOc1cc(F)c(Cn2nc(-c3ncc(OCCCCN4CC(F)C4)c(Nc4cc(C)ncc4C)n3)c3ccccc32)c(F)c1` [Example 2-3-1, N-(2,5-dimethylpyridin-4-yl)-2-[1-(4-ethoxy-2,6-difluorobenzyl)-1H-indazol-3-yl]-5-[4-(3-fluoroazetidin-1-yl)butoxy]pyrimidin-4-amine]: the IC50 in assay [1] amounted to 0.039 µM; in assay [2] (setting [6]) it was 1.4 µM; in assay [3] it was 0.033 µM.

Regarding `CCOc1cc(F)c(Cn2nc(-c3ncc(OCCCCN4CC(F)(F)C4)c(Nc4ccnc(C)n4)n3)c3ccccc32)c(F)c1` [Example 2-3-2, 5-[4-(3,3-difluoroazetidin-1-yl)butoxy]-2-[1-(4-ethoxy-2,6-difluorobenzyl)-1H-indazol-3-yl]-N-(2-methylpyrimidin-4-yl)pyrimidin-4-amine], the IC50 stood at 0.034 µM in assay [1], 9.3 µM in assay [2] (setting [6]) and 0.026 µM in assay [3].

In the case of `CCOc1cc(F)c(Cn2nc(-c3ncc(OCCCCN4CC(F)C4)c(Nc4ccnc(C)n4)n3)c3ccccc32)c(F)c1` [Example 2-3-3, 2-[1-(4-ethoxy-2,6-difluorobenzyl)-1H-indazol-3-yl]-5-[4-(3-fluoroazetidin-1-yl)butoxy]-N-(2-methylpyrimidin-4-yl)pyrimidin-4-amine], the IC50 in assay [1] stood at 0.012 µM; in assay [2] (setting [6]), 3.7 µM; in assay [3], 0.023 µM.

As for `CCOc1cc(F)c(Cn2nc(-c3ncc(OCCCCN4CCC(F)(F)CC4)c(Nc4ccnc(C)n4)n3)c3ccccc32)c(F)c1` [Example 2-3-4, 5-[4-(4,4-difluoropiperidin-1-yl)butoxy]-2-[1-(4-ethoxy-2,6-difluorobenzyl)-1H-indazol-3-yl]-N-(2-methylpyrimidin-4-yl)pyrimidin-4-amine], the IC50 in assay [1] is 0.049 µM; in assay [2] (setting [6]) it was above 10 µM; in assay [3] it was 0.051 µM.

With `CCOc1cc(F)c(Cn2nc(-c3ncc(OCCCCN4CCC(F)(F)CC4)c(Nc4cc(C)ncc4C)n3)c3ccccc32)c(F)c1` [Example 2-3-5, 5-[4-(4,4-difluoropiperidin-1-yl)butoxy]-N-(2,5-dimethylpyridin-4-yl)-2-[1-(4-ethoxy-2,6-difluorobenzyl)-1H-indazol-3-yl]pyrimidin-4-amine], the IC50 in assay [1] is 0.23 µM; in assay [2] (setting [6]) it was 6.8 µM; in assay [3], 0.031 µM.

For `CCOc1cc(F)c(Cn2nc(-c3ncc(OCCN4CCOCC4)c(Nc4ccncc4)n3)c3ccccc32)c(F)c1` [Example 3-1-1, 2-[1-(4-ethoxy-2,6-difluorobenzyl)-1H-indazol-3-yl]-5-[2-(morpholin-4-yl)ethoxy]-N-(pyridin-4-yl)pyrimidin-4-amine, reference compound], the IC50 in assay [2] (setting [6]) is 9 µM; in assay [2] (read-out: Biological Assay 2: Proliferation assay (HeLa cell line) median IC50, 4 days incubation, crystal violet), above 10 µM; in assay [3] it was 0.26 µM.
